Laboratory results taken from the supplement of paper PMC11061612.

How the values were obtained:
[1] = compound: N#Cc1cnc(Nc2cc(NC[C@H]3CNCCO3)c(C(F)(F)F)cn2)cn1 [SRA737]; conditions: max 10 µM
In short: (§1)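 Plates with 1536 wells received cancer cell lines in 7.5 μl of DMEM/F12 or RPMI containing 10% FBS. After 24 hours at 37°C and 5% CO2, cells were dosed for 72 hours with final DMSO typically 0.2%, and viability was read by CellTiter-Glo 2.0 luminescence scaled between blank-well and DMSO-well means. The single-agent IC50 was taken from a logistic fit of the dose responses made with a non-linear mixed effects model, that logistic curve having two parameters.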

[2] = compound: CC(=O)O[C@H]1C(=O)[C@@]2(C)[C@H]([C@H](OC(=O)c3ccccc3)[C@]3(O)C[C@H](OC(=O)[C@H](O)[C@@H](NC(=O)c4ccccc4)c4ccccc4)C(C)=C1C3(C)C)[C@]1(OC(C)=O)CO[C@@H]1C[C@@H]2O [Paclitaxel]; conditions: max 3 µM
In short: as §1

[3] = compound: CC1=C(C(=CC=C1)Cl)NC(=O)C2=CN=C(S2)NC3=CC(=NC(=N3)C)N4CCN(CC4)CCO [Dasatinib]; conditions: max 2 µM
In short: as §1

[4] = compound: CC1=CN2[C@@H](C1)C=NC3=CC(=C(C=C3C2=O)OC)OCCCCCOC4=C(C=C5C(=C4)N=C[C@@H]6CC(=CN6C5=O)C)OC [SG3199]; conditions: max 0.001 µM
In short: as §1

[5] = compound: Nc1ccn([C@@H]2O[C@H](CO)[C@@H](O)C2(F)F)c(=O)n1 [Gemcitabine]; conditions: max 0.3 µM
In short: as §1

[6] = compound: CC(C)n1c(=O)n(C)c2cnc3cc(F)c(-c4ccc(OCCCN5CCCCC5)nc4)cc3c21 [AZD1390]; conditions: max 0.3 µM
In short: as §1

[7] = compound: CC1(C)CCC(CN2CCN(c3ccc(C(=O)NS(=O)(=O)c4ccc(NCC5CCOCC5)c([N+](=O)[O-])c4)c(Oc4cnc5[nH]ccc5c4)c3)CC2)=C(c2ccc(Cl)cc2)C1 [Venetoclax]; conditions: max 1 µM
In short: as §1

[8] = compound: CCN(CCO)CCCOc1ccc2c(Nc3cc(CC(=O)Nc4cccc(F)c4)[nH]n3)ncnc2c1 [AZD2811]; conditions: max 1 µM
In short: as §1

[9] = compound: COc1cccc(OCCCN)c1-c1cc(Nc2cnc(C#N)cn2)n[nH]1 [Prexasertib]; conditions: max 1 µM
In short: as §1

[10] = compound: COc1cc(Nc2ncc3c(n2)-c2ccc(Cl)cc2C(c2c(F)cccc2OC)=NC3)ccc1C(=O)O [Alisertib]; conditions: max 10 µM
In short: as §1

[11] = compound: Cc1c2c(nn1C)CSCc1cc(n(C)n1)CSc1cc(c3ccccc3c1)OCCCc1c(C(=O)O)n(C)c3c-2c(Cl)ccc13 [AZD5991]; conditions: max 1 µM
In short: as §1

[12] = compound: Cc1nc(-c2cn3c(n2)-c2ccc(-c4cnn(C(C)(C)C(N)=O)c4)cc2OCC3)n(C(C)C)n1 [Taselisib]; conditions: max 10 µM
In short: as §1

[13] = compound: O=C(c1cc(Cc2n[nH]c(=O)c3ccccc23)ccc1F)N1CCN(C(=O)C2CC2)CC1 [Olaparib]; conditions: max 10 µM
In short: as §1

[14] = compound: C[C@@H]1COCCN1C2=NC(=NC(=C2)C3(CC3)[S@](=N)(=O)C)C4=C5C=CNC5=NC=C4 [AZD6738]; conditions: max 10 µM
In short: as §1

[15] = compound: COc1nnc2ccc(N3CCC(c4ccc(OCCN5CCN(C)C(=O)[C@H]5C)cc4)CC3)nn12 [AZD5153]; conditions: max 1 µM
In short: as §1

[16] = compound: CN(C)CCCOc1ccc(-c2ccc3ncc4c(c3c2)n(C2CCOCC2)c(=O)n4C)cn1 [AZD0156]; conditions: max 3 µM
In short: as §1

[17] = compound: CCc1c2c(nc3ccc(O)cc13)-c1cc3c(c(=O)n1C2)COC(=O)[C@]3(O)CC [SN-38]; conditions: max 0.3 µM
In short: as §1

[18] = compound: CC(=O)c1c(C)c2cnc(Nc3ccc(N4CCNCC4)cn3)nc2n(C2CCCC2)c1=O [Palbociclib]; conditions: max 10 µM
In short: as §1

[19] = compound: C[C@@H](Oc1cc(-c2cnn(C3CCNCC3)c2)cnc1N)c1c(Cl)ccc(F)c1Cl [Crizotinib]; conditions: max 10 µM
In short: as §1

[20] = compound: COc1cc([C@@H]2c3cc4c(cc3[C@@H](O[C@@H]3O[C@@H]5CO[C@@H](C)O[C@H]5[C@H](O)[C@H]3O)[C@H]3COC(=O)[C@H]23)OCO4)cc(OC)c1O [Etoposide]; conditions: max 10 µM
In short: as §1

[21] = compound: C1CN(CCC1(C(=O)N[C@@H](CCO)C2=CC=C(C=C2)Cl)N)C3=NC=NC4=C3C=CN4 [AZD5363]; conditions: max 10 µM
In short: as §1

[22] = compound: Cc1cc2ncnn2cc1Nc1ncc2c(n1)n(C1CCOCC1)c(=O)n2C [AZD7648]; conditions: max 10 µM
In short: as §1

[23] = compound: COc1cc2ncnc(Nc3ccc(F)c(Cl)c3)c2cc1OCCCN1CCOCC1 [Gefitinib]; conditions: max 10 µM
In short: as §1

[24] = compound: CS(=O)(=O)CCNCc1ccc(-c2ccc3ncnc(Nc4ccc(OCc5cccc(F)c5)c(Cl)c4)c3c2)o1 [Lapatinib]; conditions: max 10 µM
In short: as §1

[25] = compound: C[C@@H](c1ccc2nccn2c1)n1nnc2ncc(-c3cnn(C)c3)nc21 [Savolitinib]; conditions: max 1 µM
In short: as §1

[26] = compound: CN(CC[C@H](CSC1=CC=CC=C1)NC2=C(C=C(C=C2)S(=O)(=O)NC(=O)C3=CC=C(C=C3)N4CCC(CC4)[C@H](C5=CC=CC=C5C6=CC=C(C=C6)Cl)O)S(=O)(=O)C(F)(F)F)CCO [AZD4320]; conditions: max 1 µM
In short: as §1

[27] = compound: C1CC(C1)(C(=O)[O-])C(=O)[O-].N.N.[Pt+2] [Carboplatin]; conditions: max 10 µM
In short: as §1

[28] = compound: O=c1[nH]cc(F)c(=O)[nH]1 [5-Fluorouracil]; conditions: max 20 µM
In short: as §1

[29] = compound: NC1(c2ccc(-c3nc4ccn5c(=O)[nH]nc5c4cc3-c3ccccc3)cc2)CCC1 [MK-2206]; conditions: max 10 µM
In short: as §1

[30] = compound: C=CCn1c(=O)c2cnc(Nc3ccc(N4CCN(C)CC4)cc3)nc2n1-c1cccc(C(C)(C)O)n1 [AZD1775]; conditions: max 3 µM
In short: as §1

[31] = compound: O=C(Nc1ccc2[nH]nc(-c3ccncc3)c2c1)[C@@H]1CCN(CC(=O)N2CCN(c3ccc(-c4ncccn4)cc3)CC2)C1; conditions: max 5 µM
In short: as §1

[32] = compound: Cn1cnc2c(F)c(Nc3ccc(Br)cc3Cl)c(C(=O)NOCCO)cc21 [Selumetinib]; conditions: max 10 µM
In short: as §1

[33] = compound: C[C@@H](Nc1cc(F)cc(F)c1)c1cc(C(=O)N(C)C)cc2c(=O)cc(N3CCOCC3)oc12 [AZD8186]
In short: as §1

[34] = compound: COc1cccc2c1C(=O)c1c(O)c3c(c(O)c1C2=O)C[C@@](O)(C(=O)CO)C[C@@H]3O[C@H]1C[C@H](N)[C@H](O)[C@H](C)O1 [Doxorubicin]; conditions: max 1 µM
In short: as §1

[35] = compound: C1CN(CCC1(C(=O)N[C@@H](CCO)C2=CC=C(C=C2)Cl)N)C3=NC=NC4=C3C=CN4 [Capivasertib]; conditions: max 10 µM
In short: as §1

[36] = compound: CC(=O)Nc1cccc(-n2c(=O)n(C3CC3)c(=O)c3c(Nc4ccc(I)cc4F)n(C)c(=O)c(C)c32)c1 [Trametinib]; conditions: max 1 µM
In short: as §1

Row | Cell Line | IC50, cell viability 72 h [1] [nM] | IC50, cell viability 72 h [2] [nM] | IC50, cell viability 72 h [3] [nM] | IC50, cell viability 72 h [4] [nM] | IC50, cell viability 72 h [5] [nM] | IC50, cell viability 72 h [6] [nM] | IC50, cell viability 72 h [7] [nM] | IC50, cell viability 72 h [8] [nM] | IC50, cell viability 72 h [9] [nM] | IC50, cell viability 72 h [10] [nM] | IC50, cell viability 72 h [11] [nM] | IC50, cell viability 72 h [12] [nM] | IC50, cell viability 72 h [13] [nM] | IC50, cell viability 72 h [14] [nM] | IC50, cell viability 72 h [15] [nM] | IC50, cell viability 72 h [16] [nM] | IC50, cell viability 72 h [17] [nM] | IC50, cell viability 72 h [18] [nM] | IC50, cell viability 72 h [19] [nM] | IC50, cell viability 72 h [20] [nM] | IC50, cell viability 72 h [21] [nM] | IC50, cell viability 72 h [22] [nM] | IC50, cell viability 72 h [23] [nM] | IC50, cell viability 72 h [24] [nM] | IC50, cell viability 72 h [25] [nM] | IC50, cell viability 72 h [26] [nM] | IC50, cell viability 72 h [27] [nM] | IC50, cell viability 72 h [28] [nM] | IC50, cell viability 72 h [29] [nM] | IC50, cell viability 72 h [30] [nM] | IC50, cell viability 72 h [31] [nM] | IC50, cell viability 72 h [32] [nM] | IC50, cell viability 72 h ([33]; max 10 µM) [nM] | IC50, cell viability 72 h [34] [nM] | IC50, cell viability 72 h [35] [nM] | IC50, cell viability 72 h [36] [nM] | IC50, cell viability 72 h ([33]; max 3 µM) [nM]
1 | FU97 (Gastric Carcinoma) | > 10000 | > 3000 | > 2000 | > 1 | > 300 | > 300 | > 1000 | > 1000 | > 1000 | > 10000 | > 1000 | > 10000 | > 10000 | > 10000 | 288 | > 3000 | > 300 | > 10000 | > 10000 | > 10000 | > 10000 | > 10000 | > 10000 | > 10000 | > 1000 | > 1000 | > 10000 | > 20000 | > 10000 | > 3000 | > 5000 | > 10000 | > 10000 | > 1000 | – | – | –
2 | TT2609-C02 (Thyroid Gland Carcinoma) | – | – | > 2000 | > 1 | – | > 300 | > 1000 | > 1000 | > 1000 | > 10000 | > 1000 | > 10000 | > 10000 | > 10000 | > 1000 | > 3000 | 69 | > 10000 | > 10000 | – | – | > 10000 | > 10000 | > 10000 | > 1000 | > 1000 | – | – | – | > 3000 | – | 6350 | – | > 1000 | > 10000 | 280 | > 3000
3 | MDST8 (Colorectal Carcinoma) | – | – | > 2000 | > 1 | – | > 300 | > 1000 | > 1000 | 25 | > 10000 | > 1000 | > 10000 | > 10000 | 7450 | > 1000 | > 3000 | 15.6 | > 10000 | > 10000 | – | – | > 10000 | > 10000 | > 10000 | > 1000 | 890 | – | – | – | 875 | – | 1150 | – | 224 | > 10000 | 19.9 | > 3000
4 | LN-405 (Glioblastoma) | – | – | > 2000 | > 1 | – | > 300 | > 1000 | > 1000 | > 1000 | > 10000 | > 1000 | 6550 | > 10000 | > 10000 | > 1000 | > 3000 | > 300 | > 10000 | > 10000 | – | – | > 10000 | > 10000 | > 10000 | > 1000 | > 1000 | – | – | > 10000 | > 3000 | – | > 10000 | – | > 1000 | > 10000 | > 1000 | > 3000
5 | 8-MG-BA (Glioblastoma) | – | – | 255 | > 1 | – | > 300 | > 1000 | > 1000 | 21.1 | > 10000 | 676 | 3730 | > 10000 | 2240 | 136 | > 3000 | 15.4 | > 10000 | 8800 | – | – | > 10000 | > 10000 | 8810 | > 1000 | > 1000 | – | – | – | 430 | – | > 10000 | – | 393 | > 10000 | > 1000 | > 3000
6 | COLO-824 (Breast Carcinoma) | – | – | > 2000 | > 1 | – | > 300 | 214 | 55.8 | 64.6 | 3010 | > 1000 | 2460 | > 10000 | 5510 | 233 | > 3000 | > 300 | > 10000 | 4320 | – | – | > 10000 | > 10000 | 7960 | > 1000 | 33.3 | – | – | – | 868 | – | > 10000 | – | > 1000 | 7340 | > 1000 | > 3000
